Test results published in patent publication US9611501B2, “Method and device for rapid detection of bacterial antibiotic resistance/susceptibility” (priority 2009, dated 2017).
In brackets after ≈: the same amount, converted by molar mass.

Columns and labels:
[1] = system: MW2 methicillin resistant cells; experiment: 4-channel flow cell, Sytox Green fluorescence of immobilized cells; type: cell-based, Staphylococcus aureus; settings: oxacillin 50 μg/mL or lysostaphin 0.7 ng/mL alone, flow rate 1 mL/min, 0.5 μM Sytox Green
Experimental: (§1) This 4-channel arrangement was used to test a single strain of bacteria in the presence or absence of chemical stress (e.g., lysostaphin). The flow rate used in the channels was 1 mL/min and 0.5 μM Sytox Green was used to stain damaged or dying cells.
(§2) In each experiment, bacteria in two channels were exposed to 0.7 ng/mL lysostaphin (lyso) in the presence or absence of the antibiotic oxacillin (oxa; 50 μg/mL). The four experimental groups are as follows: (i) control (no oxa; no lyso), (ii) lyso only; (iii) oxa only, and (iv) lyso and oxa together.

[2] = system: Sanger 476 methicillin sensitive cells; experiment: as above; type: cell-based, Staphylococcus aureus; settings: flow rate 1 mL/min, 0.5 μM Sytox Green
Experimental: as §1, §2

[3] = system: Staphylococcus aureus; experiment: Lysostaphin MIC quoted for the flow cell experiment; type: cell-based; settings: strain not stated; quoted to justify 0.6 ng/mL lysostaphin
[4] = system: strain MW2; experiment: Classical microdilution broth MIC of lysostaphin; type: cell-based, Staphylococcus aureus; settings: MHB, 5×10^5 CFU/mL, overnight incubation at 37° C.
From the text: (§3) A classical microdilution broth method was used to determine the lysostaphin minimum inhibitory concentrations for strains MW2 and Sanger 476 (Jones, R. N., et al. Manual of clinical microbiology, A. Balows, J. W. J. Hausler, and H. J. Shadomy, Editors. 1985, American Society for Microbiology: Washington D.C. p. 972-977). Briefly, logarithmic-phase bacteria were cultivated in Mueller-Hinton cation-adjusted broth (MHB) and adjusted to a concentration of 1×10^6 CFU/mL. Sterile microtiter plates containing 100 μl of lysostaphin diluted in MHB were inoculated with 100 μl of the bacterial suspension to yield 5×10^5 CFU/mL. After overnight incubation at 37° C. overnight, the MIC for both strains was 0.06 μg/mL.

[5] = system: strain Sanger 476; experiment: Classical microdilution broth MIC of lysostaphin; type: cell-based, Staphylococcus aureus; settings: MHB, 5×10^5 CFU/mL, overnight incubation at 37° C.
From the text: as §3

[6] = system: MRSA (MW2); experiment: Oxacillin MIC quoted for the flow cell experiment; type: cell-based; settings: Staphylococcus aureus
[7] = system: MSSA (Sanger 476) and MRSA (MW2) strains; experiment: Single-channel flow cell, immobilized cells under shear and lysostaphin stress with oxacillin, Sytox green staining; type: cell-based, Staphylococcus aureus; settings: 10 μg/mL oxacillin, 0.6 ng/mL lysostaphin, ~4200 s^-1 shear rate for 15 mins after 40 min pretreatment with lysostaphin and shear; 0.5 μM Sytox green
Experimental: The Staphylococcus aureus (MRSA strain MW2 and MSSA strain Sanger 476) were grown to log phase in Mueller-Hinton broth with 2% sodium chloride (MH2) and then immobilized on epoxide slides, which is a non-specific method for immobilizing bacteria and can be used instead of the adhesin mechanism. To immobilize the bacteria, 100 μL of culture was placed on the epoxide slide (Super-epoxy II, Telechem International) and incubated at 37° C. for 45 min in a humid environment. The immobilized cells were briefly rinsed with water and Block-it buffer (Telechem International) to quench any remaining un-reacted epoxide bonds.
On two separate slides, MSSA (Sanger 476) and MRSA (MW2) strains were immobilized. The cells were assembled in channels of ˜300 μm width and stained with 0.5 μM Sytox green in MH2. The immobilized cells were stressed with 0.6 ng/mL lysostaphin, ˜4200 s^−1 shear rate, and 10 μg/mL oxacillin for 15 mins after a 40 min pretreatment with lysostaphin and shear alone. The lysostaphin concentration was chosen to be lower than the MIC (˜1 ng/mL).

[8] = system: MSSA (Sanger 476); experiment: Oxacillin MIC quoted for the flow cell experiment; type: cell-based; settings: Staphylococcus aureus

Row | Compound | fluorescence compared to control MW2 cells [1] | level of fluorescence compared with the control channel ([2]; 0.7 ng/mL lysostaphin) | MIC [3] [µg/mL] | minimum inhibitory concentration (MIC) [4] [µg/mL] | minimum inhibitory concentration (MIC) [5] [µg/mL] | time point at which fluorescence was increased ([2]; oxacillin 50 μg/mL with or without 0.7 ng/mL lysostaphin) | MIC [6] [µg/mL] | cell death, MSSA compared with MRSA [7] | MIC [8] [µg/mL]
1 | lysostaphin | small increase | not substantially different | ~0.001 | 0.06 | 0.06 | – | – | – | –
2 | Cc1onc(-c2ccccc2)c1C(=O)N[C@@H]1C(=O)N2[C@@H]1SC(C)(C)[C@@H]2C(=O)O [oxacillin] | no substantial increase | – | – | – | – | approximately 20 min | > 16 | More MSSA cells died during the course of the experiment than MRSA cells | 0.5 (≈ 1.25 µM)
